# Source: ChEMBL document CHEMBL4219129, “Design, synthesis and biological evaluation of spiropyrimidinetriones oxazolidinone derivatives as antibacterial agents” (2018)
# Tests used:
# Type in all cases: functional
# Staphylococcus aureus [1] = experiment: Antibacterial activity against PVL positive Staphylococcus aureus
# Staphylococcus aureus [2] = experiment: Antibacterial activity against Staphylococcus aureus ATCC 29213
# Staphylococcus aureus [3] = experiment: Antibacterial activity against Staphylococcus aureus FDA 209P
# Staphylococcus aureus [4] = experiment: Antibacterial activity against methicillin-resistant Staphylococcus aureus 562
# Staphylococcus aureus [5] = experiment: Antibacterial activity against methicillin-resistant Staphylococcus aureus 1201984
# Staphylococcus aureus [6] = experiment: Antibacterial activity against methicillin-resistant Staphylococcus aureus DB-00026
# Staphylococcus aureus [7] = experiment: Antibacterial activity against methicillin-resistant Staphylococcus aureus USA300 BAA-1556
# Staphylococcus aureus [8] = experiment: Antibacterial activity against Staphylococcus aureus Mu50 ATCC 700699
# Staphylococcus aureus [9] = experiment: Antibacterial activity against linezolid-resistant Staphylococcus aureus O-128
# Staphylococcus aureus [10] = experiment: Antibacterial activity against […] Staphylococcus aureus ATCC 13709 SMITH
# [11] = test system: Staphylococcus epidermidis; experiment: Antibacterial activity against Staphylococcus epidermidis ATCC 12228
# [12] = test system: Staphylococcus epidermidis; experiment: Antibacterial activity against methicillin-resistant Staphylococcus epidermidis ATCC 35984
# [13] = test system: Staphylococcus epidermidis; experiment: Antibacterial activity against linezolid-resistant Staphylococcus epidermidis 1117174
# [14] = test system: Staphylococcus epidermidis; experiment: Antibacterial activity against linezolid-resistant Staphylococcus epidermidis 1089191
# Escherichia coli [15] = experiment: Antibacterial activity against TolC-deficient Escherichia coli
# Escherichia coli [16] = experiment: Antibacterial activity against Escherichia coli MG1655; conditions: K-12 substr. MG1655
Structure (SMILES),MIC (Staphylococcus aureus [1]),MIC (Staphylococcus aureus [2]),MIC (Staphylococcus aureus [3]),MIC (Staphylococcus aureus [4]),MIC (Staphylococcus aureus [5]),MIC (Staphylococcus aureus [6]),MIC (Staphylococcus aureus [7]),MIC (Staphylococcus aureus [8]),MIC (Staphylococcus aureus [9]),MIC (Staphylococcus aureus [10]),MIC [11],MIC [12],MIC [13],MIC [14],MIC (Escherichia coli [15]),MIC (Escherichia coli [16])
CS(=O)(=O)NC[C@H]1CN(c2ccc(-c3ccc4c(c3)CC3(C(=O)NC(=O)NC3=O)C3CCCN43)c(F)c2)C(=O)O1 (stereo not given in full),8 µg/mL,16 µg/mL,16 µg/mL,8 µg/mL,8 µg/mL,16 µg/mL,16 µg/mL,8 µg/mL,32 µg/mL,> 32 µg/mL,8 µg/mL,4 µg/mL,32 µg/mL,> 32 µg/mL,16 µg/mL,> 32 µg/mL
O=C1NC(=O)C2(Cc3cc(-c4ccc(N5C[C@H](CO)OC5=O)cc4F)ccc3N3CCOCC32)C(=O)N1 (stereo not given in full),8 µg/mL,8 µg/mL,8 µg/mL,4 µg/mL,16 µg/mL,8 µg/mL,8 µg/mL,4 µg/mL,32 µg/mL,32 µg/mL,4 µg/mL,2 µg/mL,32 µg/mL,> 32 µg/mL,4 µg/mL,> 32 µg/mL
COC(=O)NC[C@H]1CN(c2ccc(-c3ccc4c(c3)CC3(C(=O)NC(=O)NC3=O)C3COCCN43)c(F)c2)C(=O)O1 (stereo not given in full),8 µg/mL,4 µg/mL,8 µg/mL,4 µg/mL,16 µg/mL,8 µg/mL,8 µg/mL,4 µg/mL,32 µg/mL,> 32 µg/mL,4 µg/mL,2 µg/mL,32 µg/mL,> 32 µg/mL,4 µg/mL,> 32 µg/mL
O=C1NC(=O)C2(Cc3cc(-c4ccc(N5C[C@H](CO)OC5=O)cc4F)ccc3N3CCCC32)C(=O)N1 (stereo not given in full),4 µg/mL,4 µg/mL,4 µg/mL,2 µg/mL,4 µg/mL,8 µg/mL,8 µg/mL,2 µg/mL,32 µg/mL,32 µg/mL,2 µg/mL,≤ 1 µg/mL,32 µg/mL,> 32 µg/mL,4 µg/mL,> 32 µg/mL
CC(=O)NC[C@H]1CN(c2ccc(-c3ccc4c(c3)CC3(C(=O)NNC3=O)C3CCCN43)c(F)c2)C(=O)O1 (stereo not given in full),16 µg/mL,8 µg/mL,16 µg/mL,8 µg/mL,16 µg/mL,8 µg/mL,8 µg/mL,4 µg/mL,32 µg/mL,> 32 µg/mL,8 µg/mL,4 µg/mL,> 32 µg/mL,> 32 µg/mL,16 µg/mL,> 32 µg/mL
CC(=O)NC[C@H]1CN(c2ccc3c(c2)CC2(C(=O)NC(=O)NC2=O)C2COCCN32)C(=O)O1 (stereo not given in full),> 32 µg/mL,> 32 µg/mL,> 32 µg/mL,> 32 µg/mL,> 32 µg/mL,> 32 µg/mL,> 32 µg/mL,> 32 µg/mL,> 32 µg/mL,> 32 µg/mL,> 32 µg/mL,> 32 µg/mL,32 µg/mL,> 32 µg/mL,> 32 µg/mL,> 32 µg/mL
COC(=O)C1(C(=O)OC)Cc2cc(-c3ccc(N4C[C@H](CNC(C)=O)OC4=O)cc3F)ccc2N2CCOCC21 (stereo not given in full),4 µg/mL,8 µg/mL,16 µg/mL,4 µg/mL,4 µg/mL,16 µg/mL,16 µg/mL,8 µg/mL,32 µg/mL,> 32 µg/mL,4 µg/mL,4 µg/mL,32 µg/mL,> 32 µg/mL,16 µg/mL,> 32 µg/mL
CCC(=O)NC[C@H]1CN(c2ccc(-c3ccc4c(c3)CC3(C(=O)NC(=O)NC3=O)C3CCCN43)c(F)c2)C(=O)O1 (stereo not given in full),8 µg/mL,16 µg/mL,8 µg/mL,4 µg/mL,8 µg/mL,8 µg/mL,16 µg/mL,8 µg/mL,32 µg/mL,32 µg/mL,8 µg/mL,4 µg/mL,32 µg/mL,> 32 µg/mL,8 µg/mL,> 32 µg/mL
CCOC(=O)NC[C@H]1CN(c2ccc(-c3ccc4c(c3)CC3(C(=O)NC(=O)NC3=O)C3COCCN43)c(F)c2)C(=O)O1 (stereo not given in full),32 µg/mL,16 µg/mL,16 µg/mL,8 µg/mL,32 µg/mL,16 µg/mL,16 µg/mL,8 µg/mL,> 32 µg/mL,> 32 µg/mL,8 µg/mL,8 µg/mL,32 µg/mL,> 32 µg/mL,8 µg/mL,> 32 µg/mL
CC(=O)NC[C@H]1CN(c2ccc(-c3ccc4c(c3)CC3(C(=O)NC(=O)NC3=O)C3COCCN43)c(F)c2)C(=O)O1 (stereo not given in full),8 µg/mL,4 µg/mL,8 µg/mL,4 µg/mL,16 µg/mL,8 µg/mL,8 µg/mL,4 µg/mL,32 µg/mL,32 µg/mL,4 µg/mL,2 µg/mL,32 µg/mL,> 32 µg/mL,2 µg/mL,> 32 µg/mL
